Measured values from patent publication US4879311A, “Derivatives of benzoyloxyacetic acid, and preparation and formulations thereof for therapeutic use” (Inverni della Beffa S.p.A., priority 1987, dated 1989).
Like-named read-outs stand apart in the source and are kept apart here.

Tests used:
[1] = system: reaction time to heat (hot plate); assay type: in vivo, mouse; conditions: oral; for Percentages of mice protected at 30 minutes / Percentages of mice protected at 60 minutes: reaction time 15 seconds or more, 55° C.
Experimental: (§1) The anti-inflammatory and analgesic activity of compound Ib was tested after oral administration in the carrageenin oedema test in the rat (C. A. Winter et al. Proc. Soc. Exp. Biol. Med., 111, 544, 1962), in the phenylquinone writhing test (I. C. Hendershot and J. J. Forsaith, Pharmacol. Exp. Ther., 125, 237, 1959) and in the hot plate test on the mouse (N. B. Eddy and D. J. Leimbach, J. Pharmacol. Exp. Ther., 107, 385, 1953). The activity of the compound was compared with equimolecular doses of sodium meclofenamate. A comparison was also made between the acute toxicity of the two substances by measuring the oral LD 50 on the rat.
The substances under test were administered by a stomach probe to preselected mice. The controls and the treated animals were placed on the hot plate (55° C.) one at a time immediately after treatment. The reaction time to heat, was measured 30 and 60 minutes after treatment. Animals were considered protected when the reaction time was 15 seconds or more.

[2] = system: 6-day old air pouch irritated by carrageenan; test: irritation of 6-day old air pouch by carrageenan in the rat; assay type: in vivo; conditions: os
Experimental: (2) Irritation of 6-day old air pouch by carrageenan in the rat (A. D. Sedgwick, Y. M. Sin, A. R. Mackay, A. Al-Duaij and D. A. Willoughby; J. Pharm. Pharmacol.; 36, 171, 1984).
The formation of a dorsal pouch was induced in the rat by dorsal subcutaneous administration of 20 ml of air. 10 ml of air were then injected every day for three consecutive days in order to keep the cavity permeable. Six days after the first injection of air, the dorsal pouch in the animals was treated with 1 ml of 1% carrageenan in physiological solution.
Compound Ib was administered by gastric probe, 24 hours and 1 hour before administration of the irritating agent.
The animals, dividedinto groups of five, were killed 4 hours and 24 hours after the carrageenan. The volume of the exudate and the total number of leucocytes were measured.

arachidonic acid oedema = arachidonic acid oedema in the rat, oral administration; assay type: in vivo; conditions: for change of Increase of Original Volume (in parentheses), 60 min: vs controls
Experimental: (1) Arachidonic acid oedema in the rat (M. J. Di Martino, G. C. Campbell Jnr., C. E. Wolff and N. Hanna, Agents and Actions; 21, 303, 1987)
Compound Ib was administered by gastric probe one hour before subplantar injection of 0.1 ml of 0.5% arachidonic acid in carbonate buffer (pH 8-8.2).
The volume of the paws of the treated animals and of the control was measured with a plethysmometer immediately and 60 minutes after the irritating agent (peak time of oedema).

pH of aqueous solution = assay type: physicochemical; conditions: 1% aqueous solution (Ib)
[3] = acute toxicity on the rat, oral LD50; assay type: in vivo; conditions: rat, in vivo, po
Experimental: as §1
(§2) The two LD 50 values were calculated by the probit method.

rat = test: acute toxicity on the rat, oral LD50; assay type: in vivo; conditions: oral LD50, probit method
Experimental: as §1, §2

carrageenin oedema = carrageenin oedema test in the rat, oral administration; assay type: in vivo; conditions: rat, oral; for % change of increase of original volume, 1 h / % change of increase of original volume, 2 h / % change of increase of original volume, 3 h / % change of increase of original volume, 4 h / % change of increase of original volume, 5 h: vs controls
Experimental: as §1
The substances under test, dissolved in distilled water, were administered by a stomach probe 1 hour before subplantar injection of carrageenin (1% in sterile 0.9% NaCl aqueous solution). […]

[4] = system: writhing induced by phenylquinone; test: phenylquinone writhing test, oral administration; assay type: in vivo, mouse; conditions: oral
Experimental: as §1
The substances under test were administered by a stomach probe 1 hour before intraperitoneal injection of phenylquinone (2 mg/kg). The abdominal contractions of the treated animals and the controls were counted during every 10 minutes for half an hour.

[5] = Ib 12.7 mg/kg, sodium meclofenamate 11 mg/kg
[6] = Ib 25.4 mg/kg, sodium meclofenamate 22 mg/kg
[7] = Ib 31.75 mg/kg × 2 (**P < 0.01), sodium meclofenamate 27.5 mg/kg × 2 (*P < 0.05 vs controls), 24 h
[8] = Ib 31.75 mg/kg × 2, sodium meclofenamate 27.5 mg/kg × 2, 4 h, vs controls
[9] = Ib 31.75 mg/kg × 2, sodium meclofenamate 27.5 mg/kg × 2, 24 h, vs controls
[10] = dose corresponding to 10 mg/kg meclofenamic acid (Ib 12.7 mg/kg; sodium meclofenamate 11.0 mg/kg)
[11] = dose corresponding to 10 mg/kg meclofenamic acid
[12] = dose corresponding to 20 mg/kg meclofenamic acid (Ib 25,4 mg/kg; sodium meclofenamate 22,0 mg/kg), **P < 0.01 vs controls
[13] = dose corresponding to 20 mg/kg meclofenamic acid
[14] = Ib 12.7 mg/kg, sodium meclofenamate 11.0 mg/kg
[15] = Ib 25.4 mg/kg, sodium meclofenamate 22.0 mg/kg
[16] = dose corresponding to 10 mg/kg meclofenamic acid (Ib 12.7 mg/kg; sodium meclofenamate 11.0 mg/kg), **P < 0.01 vs controls
[17] = dose corresponding to 20 mg/kg meclofenamic acid (Ib 25.4 mg/kg; sodium meclofenamate 22.0 mg/kg), **P < 0.01 vs controls

SMILES: Cc1ccc(Cl)c(Nc2ccccc2C(=O)O)c1Cl [Sodium meclofenamate, sodium meclofenamate, reference compound]
- activity in the hot plate test (in words) ([1]; mouse): inactive
- Percentages of mice protected at 30 minutes [1, 5]: 0%
- Percentages of mice protected at 60 minutes [1, 5]: 0%
- Percentages of mice protected at 30 minutes [1, 6]: 0%
- Percentages of mice protected at 60 minutes [1, 6]: 0%
- Leucocytes (m ± s.e.), 24 h [2, 7]: 40.14 ± 11.99 × 10^6
- Volume of exudate (m ± s.e.), 24 h [2, 7]: 0.52 ± 0.12 mL
- Leucocytes (m ± s.e.), 4 h ([2]; Ib 31.75 mg/kg × 2 (*P < 0.05 vs controls), sodium meclofenamate 27.5 mg/kg × 2, 4 h): 4.36 ± 1.76 × 10^6
- change of leucocytes (in parentheses), 4 h [2, 8]: -2
- change of volume of exudate (in parentheses), 4 h [2, 8]: -6
- change of leucocytes (in parentheses), 24 h [2, 9]: -52
- change of volume of exudate (in parentheses), 24 h [2, 9]: -42
- Volume of exudate (m ± s.e.), 4 h ([2]; dose corresponding to 25 mg/kg meclofenamic acid × 2 (Ib 31.75; sodium meclofenamate 27.5 mg/kg), 4 h): 0.30 ± 0.05 mL
- change of Increase of Original Volume (in parentheses), 60 min (arachidonic acid oedema; [5]): -6
- change of Increase of Original Volume (in parentheses), 60 min (arachidonic acid oedema; Ib 38.1 mg/kg, sodium meclofenamate 33 mg/kg): -29
- Increase of Original Volume (m ± s.e.), 60 min (arachidonic acid oedema; dose corresponding to 10 mg/kg meclofenamic acid (Ib 12.7 mg/kg; sodium meclofenamate 11 mg/kg)): 0.58 ± 0.05
- Increase of Original Volume (m ± s.e.), 60 min (arachidonic acid oedema; dose corresponding to 30 mg/kg meclofenamic acid (Ib 38.1 mg/kg, **P < 0.01; sodium meclofenamate 33 mg/kg, *P < 0.05 vs controls)): 0.44 ± 0.06
- statistically significant dose as fraction of the LD50 (arachidonic acid oedema; rat, oedema reduced in statistically significant manner): 1/4
- pH of aqueous solution (in words) (pH of aqueous solution): markedly alkaline pH
- LD50 at 480 h ([3]; male and female rats, 20 days of observation, probit method, read-out: DL50): 127 mg/kg
- LD50 at 480 h ([3]; mg/kg meclofenamic acid, read-out: LD50 as corresponding meclofenamic acid): 119 mg/kg
- Slope (rat): 7.402 ± 2.014
- Increase of original volume (m ± s.e.), 1 h (carrageenin oedema; [10]): 0.41 ± 0.05 mL
- Increase of original volume (m ± s.e.), 2 h (carrageenin oedema; [10]): 0.87 ± 0.10 mL
- Increase of original volume (m ± s.e.), 3 h (carrageenin oedema; [10]): 1.42 ± 0.10 mL
- Increase of original volume (m ± s.e.), 4 h (carrageenin oedema; [10]): 1.12 ± 0.07 mL
- Increase of original volume (m ± s.e.), 5 h (carrageenin oedema; [10]): 1.39 ± 0.08 mL
- % change of increase of original volume, 1 h (carrageenin oedema; [11]): -13%
- % change of increase of original volume, 2 h (carrageenin oedema; [11]): -8%
- % change of increase of original volume, 3 h (carrageenin oedema; [11]): -7%
- % change of increase of original volume, 4 h (carrageenin oedema; [11]): -6%
- % change of increase of original volume, 5 h (carrageenin oedema; [11]): -10%
- Increase of original volume (m ± s.e.), 1 h (carrageenin oedema; dose corresponding to 20 mg/kg meclofenamic acid (Ib 25,4 mg/kg; sodium meclofenamate 22,0 mg/kg)): 0.36 ± 0.05 mL
- Increase of original volume (m ± s.e.), 2 h (carrageenin oedema; dose corresponding to 20 mg/kg meclofenamic acid (Ib 25,4 mg/kg; sodium meclofenamate 22,0 mg/kg), *P < 0.05): 0.65 ± 0.05 mL
- Increase of original volume (m ± s.e.), 3 h (carrageenin oedema; [12]): 0.77 ± 0.07 mL
- Increase of original volume (m ± s.e.), 4 h (carrageenin oedema; [12]): 1.07 ± 0.09 mL
- Increase of original volume (m ± s.e.), 5 h (carrageenin oedema; [12]): 1.24 ± 0.07 mL
- % change of increase of original volume, 1 h (carrageenin oedema; [13]): -20%
- % change of increase of original volume, 2 h (carrageenin oedema; [13]): -32%
- % change of increase of original volume, 3 h (carrageenin oedema; [13]): -43%
- % change of increase of original volume, 4 h (carrageenin oedema; [13]): -33%
- % change of increase of original volume, 5 h (carrageenin oedema; [13]): -25%
- anti-inflammatory activity compared with reference (in words) (carrageenin oedema; vs sodium meclofenamate): behaved in similar manner
- minimal effective dose (carrageenin oedema; read-out: dose at which antagonism of the oedema is statistically significant): 68 µmol/kg
- % Protection, 0-10 minutes [4, 14]: 52%
- % Protection, 10-20 minutes [4, 14]: 20%
- % Protection, 20-30 minutes [4, 14]: 40%
- % Protection, total [4, 14]: 43%
- % Protection, 0-10 minutes [4, 15]: 60%
- % Protection, 10-20 minutes [4, 15]: 33%
- % Protection, 20-30 minutes [4, 15]: 46%
- % Protection, total [4, 15]: 53%
- Writhing (m ± s.e.) during 10-20 minutes [4, 10]: 16.5 ± 1.0
- Writhing (m ± s.e.) during 20-30 minutes [4, 10]: 8.6 ± 0.4
- Writhing (m ± s.e.) during 0-10 minutes [4, 16]: 12.0 ± 1.6
- Writhing (m ± s.e.), total minutes [4, 16]: 34.2 ± 1.5
- Writhing (m ± s.e.) during 10-20 minutes ([4]; dose corresponding to 20 mg/kg meclofenamic acid (Ib 25.4 mg/kg; sodium meclofenamate 22.0 mg/kg)): 13.7 ± 1.5
- Writhing (m ± s.e.) during 0-10 minutes [4, 17]: 10.0 ± 1.1
- Writhing (m ± s.e.) during 20-30 minutes [4, 17]: 7.7 ± 0.8
- Writhing (m ± s.e.), total minutes [4, 17]: 28.0 ± 2.9
